Among the data in US8859574B2 (IRM LLC, priority 2008, dated 2014) are IC50 values, retold here.

The structures appear in SMILES notation.

T1 sequence (P08069 999-1274 limits assumed): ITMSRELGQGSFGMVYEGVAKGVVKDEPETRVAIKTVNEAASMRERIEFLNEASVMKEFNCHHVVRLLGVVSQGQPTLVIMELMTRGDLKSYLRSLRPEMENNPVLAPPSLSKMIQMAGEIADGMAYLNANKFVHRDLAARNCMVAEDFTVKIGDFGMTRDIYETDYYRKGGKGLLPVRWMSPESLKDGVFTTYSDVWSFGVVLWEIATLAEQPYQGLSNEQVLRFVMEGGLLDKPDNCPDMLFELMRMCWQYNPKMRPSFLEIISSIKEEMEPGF

This assay concerns the target T1, IGF-1R Ba/F3 (Homo sapiens, UniProt P08069).
T1 construct: fused on or other part: TEL- (or BCR-) IGF-1R in Ba/F3: the kinase part holds the site
In words: Ba/F3 Cell Viability Inhibition Assay (IGF-1R Ba/F3). Format: cell-based, murine. The settings on record: Tel-TK transformed Ba/F3 cells, 48 hours, Britelite luminescence. The procedure, abridged: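 A 48 h compound treatment at 37 °C (3750 cells/well) was followed by Britelite luminescence to measure viability. Cells were Ba/F3 pro-B cells, IL-3-independent via TEL-fused IGF-1R kinase transduction. A logistic fit gave IC50 as 50% viability relative to DMSO control.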
On to `Cc1cc(Nc2nc(Nc3cc(C)c(C4CCN(CCO)CC4)cc3C)ncc2Cl)n[nH]1` [Compound 23, 2-(4-(4-(5-chloro-4-(5-methyl-1H-pyrazol-3-ylamino)pyrimidin-2-ylamino)-2,5-dimethylphenyl)piperidin-1-yl)ethanol], for which the IC50 was 6 nM. With `CC(=O)NCC(=O)N1CCC(c2cc(F)c(Nc3ncc(Cl)c(Nc4cc(C)[nH]n4)n3)cc2C)CC1` [Compound 107, N-(2-(4-(4-(5-chloro-4-(5-methyl-1H-pyrazol-3-ylamino)pyrimidin-2-ylamino)-5-fluoro-2-methylphenyl)piperidin-1-yl)-2-oxoethyl)acetamide], the IC50 is 57 nM. Turning to `Cc1cc(Nc2nc(Nc3cc(C)c(C4CCN(C5CCC(=O)CC5)CC4)cc3F)ncc2Cl)n[nH]1` [Compound 290, 4-(4-(4-(5-chloro-4-(5-methyl-1H-pyrazol-3-ylamino)pyrimidin-2-ylamino)-5-fluoro-2-methylphenyl)piperidin-1-yl)cyclohexanone], half-maximal inhibition (IC50) was put at 23 nM. `Cc1cc(C2CCN(CC(N)=O)CC2)c(C)cc1Nc1ncc(Cl)c(Nc2cc(C(F)(F)F)[nH]n2)n1` [Compound 217, 2-(4-(4-(5-chloro-4-(5-(trifluoromethyl)-1H-pyrazol-3-ylamino)pyrimidin-2-ylamino)-2,5-dimethylphenyl)piperidin-1-yl)acetamide] displayed an IC50 of 34 nM.

Regarding `Cc1cc(Nc2nc(Nc3cc(C)c(C4CCN([C@H](C)C(N)=O)CC4)cc3C)ncc2Cl)n[nH]1` [Compound 167, (R)-2-(4-(4-(5-chloro-4-(5-methyl-1H-pyrazol-3-ylamino)pyrimidin-2-ylamino)-2,5-dimethylphenyl)piperidin-1-yl)propanamide], half-maximal inhibition (IC50) required 6 nM. The compound `CNC(=O)[C@H](C)N1CCC(c2cc(F)c(Nc3ncc(Cl)c(Nc4cc(C)[nH]n4)n3)cc2C)CC1` [Compound 164, (S)-2-(4-(4-(5-chloro-4-(5-methyl-1H-pyrazol-3-ylamino)pyrimidin-2-ylamino)-5-fluoro-2-methylphenyl)piperidin-1-yl)-N-methylpropanamide] registered an IC50 of 33 nM. Consider `Cc1cc(Nc2nc(Nc3cc(C)c(C4CCN(C(=O)CCN5CCOCC5)CC4)cc3C)ncc2Cl)n[nH]1` [Compound 225, 1-(4-(4-(5-Chloro-4-(5-methyl-1H-pyrazol-3-ylamino)pyrimidin-2-ylamino)-2,5-dimethylphenyl)piperidin-1-yl)-3-morpholinopropan-1-one], for which the IC50 was determined as 17 nM. This IC50 lies about 1.9-fold lower than the previous one.

Regarding `CC(=O)N1CCC(c2cc(C)c(Nc3ncc(Cl)c(Nc4cc(C)[nH]n4)n3)cc2C)CC1` [Compound 110, 1-(4-(4-(5-chloro-4-(5-methyl-1H-pyrazol-3-ylamino)pyrimidin-2-ylamino)-2,5-dimethylphenyl)piperidin-1-yl)ethanone], the IC50 was found to be 13 nM.

Compound `Cc1cc(Nc2nc(Nc3cc(C)c(C4CCN(C)CC4)cc3OC(C)C)ncc2Cl)n[nH]1` [Compound 3, 5-chloro-N2-(2-isopropoxy-5-methyl-4-(1-methylpiperidin-4-yl)phenyl)-N4-(5-methyl-1H-pyrazol-3-yl)pyrimidine-2,4-diamine] showed an IC50 of 104 nM.

With `Cc1cc(Nc2nc(Nc3cc(C)c(C4CCN(C(=O)[C@@H]5COCCN5C(C)C)CC4)cc3F)ncc2Cl)n[nH]1` [Compound 126, (S)-(4-(4-(5-chloro-4-(5-methyl-1H-pyrazol-3-ylamino)pyrimidin-2-ylamino)-5-fluoro-2-methylphenyl)piperidin-1-yl)(4-isopropylmorpholin-3-yl)methanone], the IC50 worked out at 29 nM. Turning to `CCc1noc(CN2CCC(c3cc(F)c(Nc4ncc(Cl)c(Nc5cc(C)[nH]n5)n4)cc3C)CC2)n1` [Compound 284, 5-chloro-N2-(4-(1-((3-ethyl-1,2,4-oxadiazol-5-yl)methyl)piperidin-4-yl)-2-fluoro-5-methylphenyl)-N4-(5-methyl-1H-pyrazol-3-yl)pyrimidine-2,4-diamine], the IC50 came out at 33 nM. Take `Cc1cc(Nc2nc(Nc3cc(C)c(C4CCN(C5CCC5)CC4)cc3F)ncc2Cl)n[nH]1` [Compound 272, 5-chloro-N2-(4-(1-cyclobutylpiperidin-4-yl)-2-fluoro-5-methylphenyl)-N4-(5-methyl-1H-pyrazol-3-yl)pyrimidine-2,4-diamine]: half-maximal inhibition (IC50) required 50 nM. Regarding `Cc1cc(Nc2nc(Nc3cc(C)c(C4CCN(C(=O)N5CCOCC5)CC4)cc3F)ncc2Cl)n[nH]1` [Compound 111, (4-(4-(5-chloro-4-(5-methyl-1H-pyrazol-3-ylamino)pyrimidin-2-ylamino)-5-fluoro-2-methylphenyl)piperidin-1-yl)(morpholino)methanone], it took 8 nM to reach half-maximal inhibition (IC50). The result for `CCN1CCC(c2cc(F)c(Nc3ncc(Cl)c(Nc4cc(C)[nH]n4)n3)cc2C)CC1` [Compound 232, 5-chloro-N^2-(4-(1-ethylpiperidin-4-yl)-2-fluoro-5-methylphenyl)-N^4-(5-methyl-1H-pyrazol-3-yl)pyrimidine-2,4-diamine] reads 20 nM; that for `Cc1cc(Nc2nc(Nc3cc(C)c(C4CCN(Cc5cccnc5)CC4)cc3F)ncc2Cl)n[nH]1` [Compound 297, 5-chloro-N2-(2-fluoro-5-methyl-4-(1-(pyridin-3-ylmethyl)piperidin-4-yl)phenyl)-N4-(5-methyl-1H-pyrazol-3-yl)pyrimidine-2,4-diamine], 79 nM; that for `CCN(CC)CC(=O)N1CCC(c2cc(F)c(Nc3ncc(Cl)c(Nc4cc(C)[nH]n4)n3)cc2C)CC1` [Compound 81, 1-(4-(4-(5-chloro-4-(5-methyl-1H-pyrazol-3-ylamino)pyrimidin-2-ylamino)-5-fluoro-2-methylphenyl)piperidin-1-yl)-2-(diethylamino)ethanone], 30 nM. `Cc1cc(Nc2nc(Nc3cc(C)c(C4CCCCN4C(=O)C4(O)CC4)cc3C)ncc2Cl)n[nH]1` (stereo not drawn) [Compound 193, (2-(4-(5-chloro-4-(5-methyl-1H-pyrazol-3-ylamino)pyrimidin-2-ylamino)-2,5-dimethylphenyl)piperidin-1-yl)(1-hydroxycyclopropyl)methanone] gave an IC50 of 76 nM. Compared with the last compound, the IC50 is about 2.5-fold higher.

The compound `Cc1cc(Nc2nc(Nc3cc(C)c(C4CCN(C)CC4)cc3F)ncc2Cl)n[nH]1` [Compound 1, 5-Chloro-N2-(2-fluoro-5-methyl-4-(1-methylpiperidin-4-yl)phenyl)-N4-(5-methyl-1H-pyrazol-3-yl)pyrimidine-2,4-diamine] came in with a half-inhibitory concentration (IC50) of 11 nM. As for `Cc1cc(Nc2nc(Nc3cc(C)c(C4CCN(C(=O)C5(N(C)C)CCC5)CC4)cc3C)ncc2Cl)n[nH]1` [Compound 92, (4-(4-(5-chloro-4-(5-methyl-1H-pyrazol-3-ylamino)pyrimidin-2-ylamino)-2,5-dimethylphenyl)piperidin-1-yl)(1-(dimethylamino)cyclobutyl)methanone], the IC50 turned out to be 15 nM. `CCOC(=O)N1CCC(c2cc(F)c(Nc3ncc(Cl)c(Nc4cc(C)[nH]n4)n3)cc2C)CC1` [Compound 66, Ethyl 4-(4-(5-chloro-4-(5-methyl-1H-pyrazol-3-ylamino)pyrimidin-2-ylamino)-5-fluoro-2-methylphenyl)piperidine-1-carboxylate] displayed an IC50 of 64 nM. This IC50 is about 4.3-fold higher than that of the compound before.

Regarding `CCNC(=O)N1CCC(c2cc(C)c(Nc3ncc(Cl)c(Nc4cc(C)[nH]n4)n3)cc2C)CC1` [Compound 71, 4-(4-(5-chloro-4-(5-methyl-1H-pyrazol-3-ylamino)pyrimidin-2-ylamino)-2,5-dimethylphenyl)-N-ethylpiperidine-1-carboxamide], the IC50 was 2 nM.

For orientation: IC50 means the midpoint of a concentration-inhibition curve. A lower IC50 goes with greater potency in that assay.
